Experimental data: patent US20160166581A1 (priority 2014, published 2016)
Where “and” joins values, the source holds several entries; their conditions need not be identical. Identical values can stand only once.

What was measured:
[1] = test system: feline diabetic subjects; assay: Glucose Tolerance Test/Felines (ipGTT); type: in vivo, cat
Description: Glucose Tolerance Test/Felines. Four feline diabetic subjects (male, age 5-7 years) with newly diagnosed DM (diabetes). […] These 4 cats are subjected to intraperitoneal injection of 2 grams/kg glucose. (ipGTT). Blood glucose levels are obtained via Cephalic iv. catheter at 30 and 60 minutes.

[2] = test system: obese domestic cats with diabetes
Description: Five obese domestic cats with diabetes (average weight 14.2 lbs.) are on glargine insulin for glycemic control. […] All cats are being treated with glargine insulin in bid dosing schedule. […] Over a 14 day period morning blood glucose levels (prior to feeding) are recorded.

[3] = test system: cats with stage 3 and 4 renal disease; assay: Feline renal disease, serum creatinine pre and post treatment; type: in vivo, cat; set-up: Serum creatinine post treatment: unit not given here
Excerpt: This example measures feline renal disease. […] The average weight of the domestic cats was approximately 6 lbs.

[4] = test system: horses with black walnut extract induced laminitis; assay: Black walnut extract induced laminitis, treatment with donepezil; type: in vivo, horse
Description: Three domestic horses, average age 26, are corralled in close proximity to a Black Walnut tree with exposed roots and debris from black walnuts shells, including leaves. The weight of the horses is 1100-1200 lbs. Horses are quartered in a 24×36 square foot area with a Black Walnut tree within the confined area.
The horses are evaluated continuously after 6 hours of exposure to remove them from exposure to the black walnut extract once symptoms occur.
Subsequent doses are 50 mg on Day #3-7. Horses are given Timothy hay and water, but no other medicinal or mechanical interventions.
The same 3 horses are used in similar exposure design, as in the original experiment to induce laminitis. […] The dose is tapered to 50 mg orally on Days #3 through #7.

[5] = 4 cats, 1.25 mg daily for 4 weeks
[6] = individual cats #1-#4, donepezil 1.25 mg daily for 4 weeks
[7] = individual cats #1-#4, donepezil 1.25 mg daily for 4 weeks, 2 gm/kg glucose ip
[8] = after repeat exposure and treatment
[9] = first exposure, 3 horses, 100 mg orally Day 1-2, 50 mg Day 3-7
[10] = repeat exposure, same 3 horses, 100 mg Day 1-2, 50 mg Days 3-7

Which results are given for COc1cc2c(cc1OC)C(=O)C(CC1CCN(Cc3ccccc3)CC1)C2 (centres unmarked) [donepezil]?
30 minutes blood glucose levels on average less than before treatment [1, 5]: approximately 24%; 60 minute GTT on average less than without treatment [1, 5]: 42%; Glucose tolerance (in words) ([1]; 4 weeks prior to ipGTT testing, versus same subjects before treatment): improved glucose tolerance; Decrease of 30 minute ipGTT blood glucose versus before treatment [1, 6]: 29% and 22% (2×) and 25%; Decrease of 60 minute ipGTT blood glucose versus before treatment [1, 6]: 42% and 39% and 41% and 46%; Blood glucose at 30 minutes in ipGTT [1, 7]: 269 mg/dL and 292 mg/dL and 278 mg/dL and 304 mg/dL; Blood glucose at 60 minutes in ipGTT [1, 7]: 152 mg/dL and 164 mg/dL and 145 mg/dL and 147 mg/dL; Dose of glargine insulin decreased to ([2]; #2 Cat, from 3 u. bid, secondary to low morning blood glucose): 2 units; Morning blood glucose levels (prior to feeding) during treatment ([2]; individual diabetic cats #1-#5 on glargine insulin, 1.25 mg donepezil orally daily, 14 day period): 88 to 113 mg/dL and 105 to 128 mg/dL and 96 to 117 mg/dL; Improvement of creatinine in six cats ([3]; donepezil 2.5 mg daily over 4 week period): approximately 56%; Serum creatinine post treatment ([3]; individual cats 1-6, stage 3 or 4 renal disease, donepezil 2.5 mg daily for 4 weeks): 1.8 and 2.6 and 2.0 and 1.9 and 2.5 and 2.3; Decrease of serum creatinine post versus pre treatment ([3]; individual cats 1-6, donepezil 2.5 mg daily for 4 weeks): 49% and 53% and 45% and 60% and 65% and 62%; Gait (horse movements) [4, 8]: no abnormalities; Lasting lameness or constitutional symptoms [4, 8]: No observable lasting lameness or constitutional symptoms; Systemic symptoms after day #7 ([4]; first exposure, 3 horses): No systemic symptoms are noted; All subjects appear normal by [4, 9]: ≤ 7 days; Normal activity noted as early as [4, 9]: 5 days; Warmth, posturing and trembling resolved by [4, 9]: ≤ 3 days; Resolution of symptoms and normal movements completed by [4, 10]: ≤ 7 days; Resolution of symptoms and normal movements observed at [4, 10]: 5 days
